Test systems include M19-MEL melanoma; KM20L2 colon; DMS 273 small cell lung; RXF-631 renal; MDA-MB-435; P388 leukemia; P388/ADR leukemia; SN12K1 renal; BT-549 breast; PC-3 prostate; MDA-N; DU-145 prostate.
Assay in all cases: NCI tumour cell line growth inhibition, 48 h

Structures are written as SMILES.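 Tested at 5 concentrations; 48 h exposure; 96-well plates; endpoints linearly interpolated, else capped at highest concentration. GI50 is the concentration that inhibits growth by half. At the TGI there is no net growth.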 Some results are limits rather than exact numbers.

As for `Cc1nc(-c2cccnc2)sc1C(=O)/C=C/c1cccc([N+](=O)[O-])c1`, the TGI in the assay on M19-MEL melanoma, in the assay with KM20L2 colon, in the assay on DMS 273 small cell lung and in the assay on RXF-631 renal was more than 100 µM in each case.
In the case of `COc1ccc(-c2c(C3=NCCCN3)nnn2-c2ccc([N+](=O)[O-])cc2)cc1`, the TGI in the assay on M19-MEL melanoma, in the assay with KM20L2 colon and in the assay on DMS 273 small cell lung was more than 100 µM throughout.
`C=CCNC(=O)N(CCC)CCCC(NC(C)=O)C(=O)NCc1ccccc1` (configuration not stated): the TGI in the assay on M19-MEL melanoma, in the assay on KM20L2 colon, with DMS 273 small cell lung and in the assay on RXF-631 renal was more than 100 µM throughout.
Regarding `COc1cc(CNc2nc3ccc(C(F)(F)F)cc3nc2-c2ccccc2)cc(OC)c1OC`, the TGI in the assay on M19-MEL melanoma, with KM20L2 colon, with DMS 273 small cell lung and in the assay with RXF-631 renal was more than 100 µM each time.
With `Cc1ccc(C)c(N2C(=O)C(=O)C(c3nc4ccccc4s3)C(=Nc3cccc4c(=O)[nH][nH]c(=O)c34)C2=O)c1` (configuration not stated), the TGI with KM20L2 colon, with DMS 273 small cell lung and with RXF-631 renal was more than 100 µM each time.
On to `CC1(O)CCn2c(=O)c3cc4ccccc4cc3c(=O)n2C1O` (configuration not stated), for which the TGI in the assay with M19-MEL melanoma, in the assay on KM20L2 colon, in the assay with DMS 273 small cell lung and in the assay on RXF-631 renal was more than 100 µM throughout.
As to `CCCCCCCCCCCCCCCCCCOCC(COCCOCC[N+]1(CCCCCC(=O)[O-])CCCC1)Oc1ncccn1` (configuration not stated), the TGI in the assay with MDA-MB-435 worked out at 25 µM; with M19-MEL melanoma, 1.33 µM; in the assay on KM20L2 colon, 14.5 µM; in the assay with DMS 273 small cell lung, 2.26 µM; in the assay on P388 leukemia, 1.02 µM; with P388/ADR leukemia, 15.9 µM. The TGI in the assay with SN12K1 renal worked out at 17.7 µM; in the assay on BT-549 breast, 21.4 µM; with PC-3 prostate it was 15 µM; in the assay with MDA-N, 23.2 µM; in the assay on DU-145 prostate, 27.2 µM.
Turning to `Cc1c(C)c(CC(=O)N2CC2)c(C)c(C)c1CC(=O)N1CC1`, the TGI stood at 33.6 µM with MDA-MB-435; 27.4 µM in the assay with M19-MEL melanoma; 47.3 µM with KM20L2 colon; 13.2 µM in the assay on DMS 273 small cell lung; 51.4 µM in the assay with BT-549 breast; 58.2 µM with PC-3 prostate. For the same compound, the TGI with MDA-N came to 34.2 µM; in the assay with DU-145 prostate it was 15.8 µM.
As for `CC(C)[O-].CC(C)[O-].O=c1cccccc1[O-].O=c1cccccc1[O-].[Ti+4]`, in the assay on KM20L2 colon, the GI50 was 46.1 µM and the TGI was more than 100 µM.
Regarding `c1ccc2[nH]c(CNc3ccc(C4C[Se]N=N4)cc3)nc2c1` (configuration not stated), the TGI in the assay on M19-MEL melanoma and in the assay with DMS 273 small cell lung was more than 100 µM throughout.
As to `O=c1[nH]c2cc([N+](=O)[O-])ccc2nc1/C(=N\Nc1ccccc1)C(O)c1ccc2c(c1)OCO2` (configuration not stated), the TGI in the assay with M19-MEL melanoma, with KM20L2 colon, with DMS 273 small cell lung and with RXF-631 renal was more than 100 µM in each case.
On to `CCOC(OC1=C(C#N)CCCC1)C(CC)[Se]c1ccccc1` (configuration not stated), for which the TGI turned out to be 48.7 µM with M19-MEL melanoma, 62.1 µM in the assay on KM20L2 colon, 24.9 µM in the assay on DMS 273 small cell lung and 26.2 µM with RXF-631 renal.
Take `N.N.N.N.N.O=S(=O)([O-])S(=O)(=O)[O-].[Co+3]`: in the assay with KM20L2 colon, the GI50 is more than 100 µM and the TGI was more than 100 µM. Also, in the assay with DMS 273 small cell lung, the GI50 is more than 100 µM and the TGI was more than 100 µM.
As for `CC1=NN(C(=O)c2ccncc2)C(=O)C1N=Nc1ccc(F)cc1` (configuration not stated), the TGI in the assay on M19-MEL melanoma, with KM20L2 colon and with DMS 273 small cell lung was more than 100 µM in each case.
On to `Cc1ccccc1/C=C/C(=O)c1ccccc1`, for which the TGI in the assay with M19-MEL melanoma was determined as 61 µM; in the assay on KM20L2 colon, 33.6 µM; in the assay with DMS 273 small cell lung, 61.2 µM; in the assay with RXF-631 renal, 42.5 µM.
Regarding `C[C@]12C/C(=C/O)C(=O)C(O)=C1CC[C@@H]1C2CC[C@@]2(C)C1CC[C@@H]2O` (some centres not stated), the TGI with M19-MEL melanoma was determined as 45.3 µM; in the assay on KM20L2 colon it was 54.6 µM; in the assay with DMS 273 small cell lung, 51.1 µM; in the assay with RXF-631 renal it was 48.8 µM.
For `N#Cc1c(-c2ccco2)cc(-c2ccccc2)[nH]c1=O`, the TGI in the assay with M19-MEL melanoma, with KM20L2 colon, in the assay with DMS 273 small cell lung and in the assay with RXF-631 renal was more than 100 µM throughout.
In the case of `O=C1[C@H]2ON(c3ccccc3)C(c3ccco3)[C@H]2C(=O)N1c1ccc(Cc2ccc(N3C(=O)[C@@H]4ON(c5ccccc5)C(c5ccco5)[C@@H]4C3=O)cc2)cc1` (some centres not stated), the TGI in the assay on M19-MEL melanoma, in the assay on KM20L2 colon and in the assay with DMS 273 small cell lung was more than 100 µM each time.
Take `Cc1c2ccncc2c(C)c2c1[nH]c1ccc(O)c(OCC(F)(F)F)c12`: the TGI in the assay on KM20L2 colon amounted to 27.3 µM; with DMS 273 small cell lung it was 4.87 µM.
On to `COc1ccc2c(NCCCCCCNc3c4ccccc4nc4cc(OC)ccc34)c3ccccc3nc2c1`, for which the TGI came out at 1.26 µM in the assay on MDA-MB-435; 1.17 µM in the assay on KM20L2 colon; 3.18 µM in the assay with BT-549 breast; 3.97 µM in the assay on RXF-631 renal; 0.543 µM with PC-3 prostate; 1.2 µM in the assay with MDA-N. Besides, the TGI in the assay on DU-145 prostate was found to be 1.47 µM.
For `CCOC(=O)C1(Cc2ccc3ccccc3c2)CCCCC(=O)N1` (configuration not stated), the TGI in the assay with M19-MEL melanoma was more than 100 µM; with KM20L2 colon, more than 100 µM; in the assay on DMS 273 small cell lung, 36.9 µM.

Values taken from PubChem BioAssay (NCI).
